Assay results taken from patent publication US20260345649A1, “PHARMACEUTICAL COMPOSITION FOR DESTRUCTION OF TUMOR BLOOD VESSELS” (SAMSUNG MEDICAL FOUNDATION, priority 2022, published 2026).

Key:
[1] = system: HUVEC; test: Intracellular ROS generation in HUVEC (DCF-DA staining); assay type: cell-based, human
Procedure: The effect of D-glucose on intracellular reactive oxygen species (ROS) generation in HUVEC was measured using the DCF-DA staining method. HUVEC cells (25,000 per well) were cultured in a 96-well microplate with a dark, clear bottom. After 24 hours of incubation, the cells were treated with D-glucose at concentrations of 10 mM, 25 mM, 50 mM, 100 mM, 125 mM, 150 mM, 200 mM, and 250 mM. Following drug treatment, the culture medium was removed, and the cells were washed with 100 μL/well of Hanks' Balanced Salt Solution (HBSS) buffer. After washing, 100 μL/well of diluted DCFDA was added, and the […]. The cells were then incubated in diluted DCFDA solution for 45 minutes at 37 °C in the dark. Following incubation, the DCFDA solution was removed, and 100 μL of HBSS buffer was added. Fluorescence was immediately measured using a fluorescence plate reader at Ex/Em=485/535 nm.
The effect of L-glucose on intracellular ROS generation was measured using the same method as for D-glucose.

[2] = system: HUVEC; test: 5-FU cytotoxicity on HUVEC according to D-glucose or L-glucose concentration (MTS); assay type: cell-based, human
Procedure: An MTS cell proliferation assay was conducted to evaluate the cytotoxic effect of 5-FU on HUVEC according to D-glucose concentration under different pH conditions.
The cells were then incubated for an additional 24 hours in DMEM medium containing various concentrations of glucose.
To assess the cytotoxic effect of L-glucose on HUVEC, the experiment was conducted in the same manner as described in Example 2, Section 3.
To assess the cytotoxic effect of D-glucose or L-glucose on HUVEC, the experiment was conducted in the same manner as described in Example 2, Section 3.

[3] = system: HUVEC; test: HUVEC cytotoxicity according to L-NMMA concentration (MTS); assay type: cell-based, human; details: L-NMMA alone, FIG. 19
Procedure: The cells were then incubated for an additional 24 hours in DMEM medium containing various L-NMMA concentrations. Following incubation, the cells were washed twice with PBS, and 100 μL of fresh DMEM growth medium was added. The cells were then further incubated for 48 hours.

[4] = system: blood pressure; details: administered into blood vessels; cited from earlier work
[5] = system: platelets; details: L-NMMA alone, physiological conditions; cited from earlier work
[6] = system: hexokinase; details: role: substrate; first enzyme in glycolysis; cited from earlier work
[7] = system: human body; details: in vivo; cited from earlier work
[8] = system: human gastric cancer cells; test: Human gastric cancer cell xenograft in nude mice, bevacizumab local injection; assay type: in vivo, nude mice (Crj: BALB/c-nu/nu), human tumor cells; details: 1 mg bevacizumab, three times at one-week intervals
Procedure: The animals used in the experiment were three male nude mice (Crj: BALB/c-nu/nu, male), each weighing approximately 30 g and five weeks old, produced by Orient. The mice underwent a one-week acclimatization period in the laboratory before use. Human gastric cancer cells (5×10^6 cells/100 μL in PBS) were xenografted into the subcutaneous fat layer on the dorsal side of each nude mouse. The tumor size was measured periodically, and drug administration was initiated when the tumor reached a diameter of 1 cm.
The experimental animals were administered 1 mg of bevacizumab by injecting 0.2 cc adjacent to the tumor three times at one-week intervals.

[9] = system: advanced gastric cancer; details: combined with fluoropyrimidine-cisplatin therapy; cited from earlier work
[10] = D-glucose, L-glucose and mixtures with 5-FU, FIG. 15

Molecule: O=C[C@H](O)[C@@H](O)[C@H](O)[C@H](O)CO [D-glucose]
- ROS generation with increasing concentration ([1]; D-glucose 10 mM to 250 mM, FIG. 11A): increased
- cell viability ([2]; D-glucose at both 5 mM and 25 mM, FIG. 13): significantly reduced cell viability
- cell viability [2, 10]: significantly reduced cell viability

Molecule: CN=C(N)NCCC[C@H](N)C(=O)O [L-NMMA, N^G-Methyl-L-arginine]
- cell viability [3]: significantly reduced cell viability
- blood pressure [4]: effectively increases blood pressure
- platelet activation in vivo [5]: does not activate platelets in vivo

Molecule: O=C[C@@H](O)[C@H](O)[C@@H](O)[C@@H](O)CO [L-glucose]
- ROS generation with increasing concentration ([1]; L-glucose, FIG. 11B): decreased
- cell viability [2, 10]: significantly reduced cell viability
- cell viability, comparison among D-glucose, L-glucose and mixtures ([2]; FIG. 15): more pronounced reduction in cell viability
- cell viability ([2]; L-glucose at both 5 mM and 25 mM, FIG. 14): significantly reduced cell viability
- phosphorylation by hexokinase [6]: not phosphorylated by hexokinase
- toxicity to the human body [7]: non-toxic to the human body

Molecule: bevacizumab: recombinant humanized monoclonal antibody designed to inhibit vascular endothelial growth factor (VEGF)
- tumor size for the following two months [8]: did not change
- tumor size in the third month [8]: began to increase
- tumor size four weeks after drug administration compared to before injection ([8]; P>0.05, FIG. 20): remained nearly unchanged
- progression-free survival and overall response rate [9]: improves progression-free survival and overall response rate
